# Source: patent publication US10781224B2, “Bis(oxymethyl)phosphinic acid and biogenic metal salts thereof as regulators of plant growth and development” (priority 2016, dated 2020)
# What was measured:
# [1] = tested on: corn (Krasnodar 385 MV variety); assay: Corn seed treatment with BHMPA salts: germinating power; format: in vivo
# Experimental: (§1) Experimental versions—soaking seeds in BHMPA solutions and solutions of BHMPA Ca, Mg, Na, Co, Mn, Cu, and Zn salts at 1·10^−6-1·10^−12% concentrations (doses). The studies were conducted in laboratory in Petri dishes; seed bed—two layers of filter paper. 50 seeds soaked in water (control) and in the solutions of the tested compounds (experimental) were placed into each dish. Wheat, corn, and rice seeds were exposed for one hour.
# (§2) Seed germination energy and rate were calculated in percent as an arithmetic mean of the four experimental results (germination energy on the 4th day, wheat germination on the 8th day, rice and corn germination—on the 7th day). Germination was determined based on the germinating power indicators (length of the roots and sprouts and their wet and dry mass per 100 shoots).
# (§3) The effect of pre-sowing seed treatment with the claimed BHMPA salts of biogenic metals was studied on winter wheat (Vershin variety), corn (Krasnodar 385 MV variety), and rice (Diamant variety).
# The above data describe the seed viability only at the initial stage of germination, while the germination ability at the later stage of germination is defined by the initial germinating power. The method for the determination of the germinating power comprises measuring the height of the sprouts and primary roots, as well as the biomass and the dry mass thereof per 100 seedlings. [M. A. Kartuzova. Initial Germinating Power as Method of Biological Assessment of Seed Quality. Selection and Seed Farming, #2, 1953].
# [2] = tested on: winter wheat (Vershin variety); assay: Winter wheat seed treatment with BHMPA salts: germination energy and germination rate; format: in vivo
# Experimental: Control—Soaking Seeds in Water;
# as §1
# Analysis was conducted according to the government standards GOST 12038-84 “Crop seeds. Technical conditions for determining the germination energy and germination rate”, GOST 12044-93 “Crop seeds. Methods for determining disease contamination.”
# as §2, §3
# [3] = corn seeds, solution concentration 1 · 10^−10%
# [4] = winter wheat Vershin, 1·10^−6% solution
# [5] = winter wheat Vershin, 1·10^−7% solution
# [6] = winter wheat Vershin, 1·10^−8% solution
# [7] = winter wheat Vershin, 1·10^−9% solution
# [8] = winter wheat Vershin, 1·10^−10% solution
# [9] = winter wheat Vershin, 1·10^−11% solution
# [10] = winter wheat Vershin, 1·10^−12% solution
# [11] = winter wheat, comparative study vs Melaphen, 1·10^−12% solution
smiles,measurement,setting,value
"O=P([O-])(CO)CO.O=P([O-])(CO)CO.[Ca+2] [Ca-salt, Calcium BHMPA Salt]",optimum concentration for treating corn seeds before sowing,[1]; corn,1·10^−10%
same,"Length, root",[1]; [3],6.6 cm
same,"Length, root, + % to control",[1]; [3],12%
same,"Length, sprout",[1]; [3],3.2 cm
same,"Length, sprout, + % to control",[1]; [3],18.5%
same,"Mass, dry, root",[1]; [3],2.03 g/100 plantlings
same,"Mass, dry, root, + % to control",[1]; [3],15%
same,"Mass, dry, sprout",[1]; [3],1.47 g/100 plantlings
same,"Mass, dry, sprout, + % to control",[1]; [3],8%
same,"Mass, wet, root",[1]; [3],9.63 g/100 plantlings
same,"Mass, wet, root, + % to control",[1]; [3],10%
same,"Mass, wet, sprout",[1]; [3],8.59 g/100 plantlings
same,"Mass, wet, sprout, + % to control",[1]; [3],21%
same,"Length, root","[1]; corn, 1·10^−6% solution",4.2 cm
same,"Length, root, + % to control","[1]; corn, 1·10^−6% solution",−7%
same,"Length, sprout","[1]; corn, 1·10^−6% solution",2.5 cm
same,"Length, sprout, + % to control","[1]; corn, 1·10^−6% solution",−4%
same,"Mass, dry, root","[1]; corn, 1·10^−6% solution",1.09 g/100 plantlings
same,"Mass, dry, root, + % to control","[1]; corn, 1·10^−6% solution",−2%
same,"Mass, dry, sprout","[1]; corn, 1·10^−6% solution",0.63 g/100 plantlings
same,"Mass, dry, sprout, + % to control","[1]; corn, 1·10^−6% solution",−9%
same,"Mass, wet, root","[1]; corn, 1·10^−6% solution",7.30 g/100 plantlings
same,"Mass, wet, root, + % to control","[1]; corn, 1·10^−6% solution",−2.5%
same,"Mass, wet, sprout","[1]; corn, 1·10^−6% solution",4.21 g/100 plantlings
same,"Mass, wet, sprout, + % to control","[1]; corn, 1·10^−6% solution",−6%
same,difference from the control in germinating power,"[1]; corn, 1·10^−6%, 1·10^−7% and 1·10^−12% solutions",rather insignificant
same,"Length, root","[1]; corn, 1·10^−7% solution",4.6 cm
same,"Length, root, + % to control","[1]; corn, 1·10^−7% solution",2%
same,"Length, sprout","[1]; corn, 1·10^−7% solution",2.7 cm
same,"Length, sprout, + % to control","[1]; corn, 1·10^−7% solution",4%
same,"Mass, dry, root","[1]; corn, 1·10^−7% solution",1.20 g/100 plantlings
same,"Mass, dry, root, + % to control","[1]; corn, 1·10^−7% solution",8%
same,"Mass, dry, sprout","[1]; corn, 1·10^−7% solution",0.72 g/100 plantlings
same,"Mass, dry, sprout, + % to control","[1]; corn, 1·10^−7% solution",4%
same,"Mass, wet, root","[1]; corn, 1·10^−7% solution",7.75 g/100 plantlings
same,"Mass, wet, root, + % to control","[1]; corn, 1·10^−7% solution",3%
same,"Mass, wet, sprout","[1]; corn, 1·10^−7% solution",4.67 g/100 plantlings
same,"Mass, wet, sprout, + % to control","[1]; corn, 1·10^−7% solution",5%
same,"Length, root","[1]; corn, 1·10^−8% solution",4.8 cm
same,"Length, root, + % to control","[1]; corn, 1·10^−8% solution",7%
same,"Length, sprout","[1]; corn, 1·10^−8% solution",2.8 cm
same,"Length, sprout, + % to control","[1]; corn, 1·10^−8% solution",8%
same,"Mass, dry, root","[1]; corn, 1·10^−8% solution",1.24 g/100 plantlings
same,"Mass, dry, root, + % to control","[1]; corn, 1·10^−8% solution",12%
same,"Mass, dry, sprout","[1]; corn, 1·10^−8% solution",0.85 g/100 plantlings
same,"Mass, dry, sprout, + % to control","[1]; corn, 1·10^−8% solution",23%
same,"Mass, wet, root","[1]; corn, 1·10^−8% solution",8.13 g/100 plantlings
same,"Mass, wet, root, + % to control","[1]; corn, 1·10^−8% solution",8.5%
same,"Mass, wet, sprout","[1]; corn, 1·10^−8% solution",4.84 g/100 plantlings
same,"Mass, wet, sprout, + % to control","[1]; corn, 1·10^−8% solution",8.5%
same,"Length, root","[1]; corn, 1·10^−9% solution",5.2 cm
same,"Length, root, + % to control","[1]; corn, 1·10^−9% solution",15.5%
same,"Length, sprout","[1]; corn, 1·10^−9% solution",3.0 cm
same,"Length, sprout, + % to control","[1]; corn, 1·10^−9% solution",15%
same,"Mass, dry, root","[1]; corn, 1·10^−9% solution",1.26 g/100 plantlings
same,"Mass, dry, root, + % to control","[1]; corn, 1·10^−9% solution",13.5%
same,"Mass, dry, sprout","[1]; corn, 1·10^−9% solution",0.96 g/100 plantlings
same,"Mass, dry, sprout, + % to control","[1]; corn, 1·10^−9% solution",39%
same,"Mass, wet, root","[1]; corn, 1·10^−9% solution",9.18 g/100 plantlings
same,"Mass, wet, root, + % to control","[1]; corn, 1·10^−9% solution",22.5%
same,"Mass, wet, sprout","[1]; corn, 1·10^−9% solution",4.99 g/100 plantlings
same,"Mass, wet, sprout, + % to control","[1]; corn, 1·10^−9% solution",12%
same,"Length, root","[1]; corn, 1·10^−10% solution",5.4 cm
same,"Length, root, + % to control","[1]; corn, 1·10^−10% solution",20%
same,"Length, sprout","[1]; corn, 1·10^−10% solution",3.2 cm
same,"Length, sprout, + % to control","[1]; corn, 1·10^−10% solution",23%
same,"Mass, dry, root","[1]; corn, 1·10^−10% solution",1.34 g/100 plantlings
same,"Mass, dry, root, + % to control","[1]; corn, 1·10^−10% solution",21%
same,"Mass, dry, sprout","[1]; corn, 1·10^−10% solution",1.23 g/100 plantlings
same,"Mass, dry, sprout, + % to control","[1]; corn, 1·10^−10% solution",78%
same,"Mass, wet, root","[1]; corn, 1·10^−10% solution",9.82 g/100 plantlings
same,"Mass, wet, root, + % to control","[1]; corn, 1·10^−10% solution",31%
same,"Mass, wet, sprout","[1]; corn, 1·10^−10% solution",5.61 g/100 plantlings
same,"Mass, wet, sprout, + % to control","[1]; corn, 1·10^−10% solution",26%
same,"Length, root","[1]; corn, 1·10^−11% solution",5.2 cm
same,"Length, root, + % to control","[1]; corn, 1·10^−11% solution",15.5%
same,"Length, sprout","[1]; corn, 1·10^−11% solution",2.9 cm
same,"Length, sprout, + % to control","[1]; corn, 1·10^−11% solution",11.5%
same,"Mass, dry, root","[1]; corn, 1·10^−11% solution",1.30 g/100 plantlings
same,"Mass, dry, root, + % to control","[1]; corn, 1·10^−11% solution",17%
same,"Mass, dry, sprout","[1]; corn, 1·10^−11% solution",1.09 g/100 plantlings
same,"Mass, dry, sprout, + % to control","[1]; corn, 1·10^−11% solution",58%
same,"Mass, wet, root","[1]; corn, 1·10^−11% solution",9.44 g/100 plantlings
same,"Mass, wet, root, + % to control","[1]; corn, 1·10^−11% solution",26%
same,"Mass, wet, sprout","[1]; corn, 1·10^−11% solution",5.15 g/100 plantlings
same,"Mass, wet, sprout, + % to control","[1]; corn, 1·10^−11% solution",15%
same,"Length, root","[1]; corn, 1·10^−12% solution",4.6 cm
same,"Length, root, + % to control","[1]; corn, 1·10^−12% solution",2%
same,"Length, sprout","[1]; corn, 1·10^−12% solution",2.7 cm
same,"Length, sprout, + % to control","[1]; corn, 1·10^−12% solution",4%
same,"Mass, dry, root","[1]; corn, 1·10^−12% solution",1.23 g/100 plantlings
same,"Mass, dry, root, + % to control","[1]; corn, 1·10^−12% solution",11%
same,"Mass, dry, sprout","[1]; corn, 1·10^−12% solution",0.81 g/100 plantlings
same,"Mass, dry, sprout, + % to control","[1]; corn, 1·10^−12% solution",17%
same,"Mass, wet, root","[1]; corn, 1·10^−12% solution",8.65 g/100 plantlings
same,"Mass, wet, root, + % to control","[1]; corn, 1·10^−12% solution",15%
same,"Mass, wet, sprout","[1]; corn, 1·10^−12% solution",4.73 g/100 plantlings
same,"Mass, wet, sprout, + % to control","[1]; corn, 1·10^−12% solution",6%
same,Germination energy,[2]; [4],85.3%
same,Germination rate,[2]; [4],88.0%
same,Germination energy,[2]; [5],90.8%
same,Germination rate,[2]; [5],94.3%
same,Germination energy,[2]; [6],80.9%
same,Germination rate,[2]; [6],84.0%
same,Germination energy,[2]; [7],81.2%
same,Germination rate,[2]; [7],85.3%
same,Germination energy,[2]; [8],86.1%
same,Germination rate,[2]; [8],88.0%
same,Germination energy,[2]; [9],87.0%
same,Germination rate,[2]; [9],89.3%
same,Germination energy,[2]; [10],88.9%
same,Germination rate,[2]; [10],92.0%
same,Germination energy,[2]; [11],87.0%
same,Germination rate,[2]; [11],93.7%
